Assay results published in article PMC5048095, “Agroindustrial Wastes as Alternative for Lipase Production by Candida viswanathii under Solid-State Cultivation: Purification, Biochemical Properties, and Its Potential for Poultry Fat Hydrolysis” (Enzyme Research, 2016).

System: T1, purified C. viswanathii lipase
T1 construct: native extracellular lipase from solid-state culture, Octyl Sepharose purified
Test: p-nitrophenol release at […] nm, Lineweaver-Burk plot
Assay type: biochemical, Candida viswanathii
Conditions: 0.0 to 1.0 mM p-NPP; pH and temperature of the kinetic assay not given; free enzyme

CCCCCCCCCCCCCCCC(=O)Oc1ccc([N+](=O)[O-])cc1 [p-NPP, p-nitrophenyl palmitate]
Km: 120 µM
